Reference: BindingDB's records for patent US12011444 (Idorsia Pharmaceuticals, 2024)

What was measured:
[1] = target: Prostaglandin E2 receptor EP4 subtype (Homo sapiens, UniProt P35408); experiment: hEP4 cAMP Assay
Experimental: Plate is pre-incubated 45 minutes at room temperature. Subsequently, 2.5 microliters of PGE2 (final conc. 6 nM) are transferred into the assay plate. Plate is incubated 30 minutes at room temperature.

[2] = target: Prostaglandin E2 receptor EP2 subtype (Homo sapiens, UniProt P43116); experiment: hEP2 cAMP Assay
Sequence of Prostaglandin E2 receptor EP2 subtype (P43116 whole entry): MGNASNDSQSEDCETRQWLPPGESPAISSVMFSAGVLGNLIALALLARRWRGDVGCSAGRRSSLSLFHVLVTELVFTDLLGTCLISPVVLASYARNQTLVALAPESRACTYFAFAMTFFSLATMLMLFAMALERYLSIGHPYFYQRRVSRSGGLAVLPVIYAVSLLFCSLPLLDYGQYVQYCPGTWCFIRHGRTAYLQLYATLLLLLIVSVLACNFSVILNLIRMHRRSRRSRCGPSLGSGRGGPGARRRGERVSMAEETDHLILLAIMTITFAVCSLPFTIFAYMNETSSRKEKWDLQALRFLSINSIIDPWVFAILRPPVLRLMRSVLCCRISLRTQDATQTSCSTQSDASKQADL
Experimental: Plate is pre-incubated 45 minutes at room temperature. […] Plate is incubated 30 minutes at room temperature. […] For each compound concentration the percentage of cAMP compared to DMSO control value as average±STDEV (each concentration is measured in duplicate) is calculated.

Sequence of Prostaglandin E2 receptor EP4 subtype (P35408 whole entry): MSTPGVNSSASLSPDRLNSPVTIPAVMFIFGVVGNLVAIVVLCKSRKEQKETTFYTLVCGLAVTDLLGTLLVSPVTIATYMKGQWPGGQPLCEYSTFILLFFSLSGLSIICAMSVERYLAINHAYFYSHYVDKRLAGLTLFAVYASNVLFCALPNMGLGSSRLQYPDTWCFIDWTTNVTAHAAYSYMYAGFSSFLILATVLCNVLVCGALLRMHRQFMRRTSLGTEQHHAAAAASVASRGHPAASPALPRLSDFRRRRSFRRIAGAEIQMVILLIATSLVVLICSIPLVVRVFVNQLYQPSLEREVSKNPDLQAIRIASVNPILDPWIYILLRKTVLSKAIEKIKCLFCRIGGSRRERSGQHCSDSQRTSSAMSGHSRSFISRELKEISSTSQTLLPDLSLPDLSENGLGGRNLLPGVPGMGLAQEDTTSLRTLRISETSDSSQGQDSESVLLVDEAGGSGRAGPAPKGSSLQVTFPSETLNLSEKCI

IC50 [1] [nM] | IC50 [2] [nM] | SMILES
697 | 41 | Cc1ccc(F)c2c1cc(C)n2CCNc1cc(-c2ccc3c(c2)CNC3=O)ncn1 [US12011444, Example 65]
786 | 38 | COc1ccc(F)c2c1cc(C)n2CCNc1cc(-c2ccc(C(=O)O)c(N)c2)ncn1 [US12011444, Example 214]
136 | 68 | COc1ccc(F)c2c1cc(C)n2CCNc1cc(-c2ccc(C(=O)O)c(C(C)(C)C)c2)ncn1 [US12011444, Example 535]
247 | 4 | Cc1cc(F)cc2c1cc(C)n2CCNc1cc(-c2ccc(C(=O)O)c(NCC(F)(F)F)c2)ncn1 [US12011444, Example 559]
558 | 211 | COc1cc(F)c(F)c2c1cc(C)n2CCNc1cc(-c2ccc3oc(C)nc3c2)ncn1 [US12011444, Example 689]
783 | 45 | Cc1cc(F)cc2c1cc(C)n2CCNc1cc(-c2cccc(-n3cccn3)c2)ncn1 [US12011444, Example 729]
80 | 57 | CCOc1cc(-c2cc(NCCn3c(C)cc4c(OC)ccc(F)c43)ncn2)ccc1C(=O)NOCc1ccccc1 [US12011444, Example 766]
259 | 11 | CCOc1cc(-c2cc(NCCn3c(C)cc4c(OC)ccc(F)c43)ncn2)ccc1C(=O)NOCCO [US12011444, Example 769]
310 | 19 | CCOc1cc(-c2cc(NCCn3c(C)cc4c(C)ccc(F)c43)ncn2)ccc1C(=O)NOCCO [US12011444, Example 771]
139 | 20 | COc1cc(F)cc2c1cc(C)n2CCNc1cc(-c2cc(O)cs2)ncn1 [US12011444, Example 801]
